Series [1] deals with C57BL/6J mice. Conditions: reported values of known 5HT2A agonists run under comparable conditions; dash = ED50 could not be estimated; cited from earlier work.
The next series deals with human hepatocytes. The series can be described thus: Metabolic stability in cryopreserved human hepatocytes. The class given is in vitro ADME. Conditions: qualitative statement. As for the experimental part: (§1) The metabolic stability of a test compounds were assessed by monitoring disappearance of each compound in the presence of cryopreserved hepatocytes for up to 1 hour at 37° C. Following protein precipitation and centrifugation, the samples were analyzed by UPLC-MS-MS. Test Compound stock solutions (10 mM) were diluted 1 in 100 (2 μL 10 mM DMSO stock+198 μL 50:50 acetonitrile:water) to provide a 100 μM working solution. Following addition of test compounds to buffer, samples were pre-incubated at 37° C. for 5 minutes prior to initiating the incubation by the addition of test compounds to hepatocytes (these were held at 37° C. during pre-incubation period). Aliquots were sampled at 0, 5, 10, 20, 40 and 60 min and added to ice cold acetonitrile to terminate the reaction and precipitate proteins. All samples were mixed, centrifuged, and the supernatants were analyzed by UPLC-MS-MS using a Phenomenex Luna Omega […], C18 100 Å, 50×2.1 mm column. The final incubation conditions were as follows: hepatocytes 0.5×10^6 viable cells/mL, test compound 1 μM (n=1), acetonitrile concentration<0.01% (v/v) and DMSO concentration<0.01% (v/v). The intrinsic clearance (Clint) and half-life (T1/2) values are determined from the slope of the parent depletion curve. Positive control compounds with known metabolic clearance were included (diltiazem and naloxone).

Test in series [2]: as above
Format: in vitro ADME. The settings on record: cryopreserved hepatocytes, human hepatocytes, 1 μM, 37° C.; for hepatocyte CLint at 1 μM: read-out: Clint (μL/min/10^6 cells). The procedure: as §1

The next series has as its target Serotonin 5-HT2A (human) (Homo sapiens (Human), UniProt P28223). The series can be described thus: 5-HT2A receptor binding, [3H]-ketanserin competition in membrane fractions. Conditions: 1 nM [3H]-ketanserin, Cheng-Prusoff, N=1-3.
The target in another series is 5-HT1A (Homo sapiens (Human), UniProt P08908). The series can be described thus: 5-HT1A Gi/o-mediated cAMP inhibition, GloSensor assay. The class given is cell-based. The settings on record: for 5-HT1A-cAMP Emax (% 5-HT): cAMP inhibition, 0.2 μM isoproterenol, IA = Inactive.
Another series deals with 5-HT2A (Homo sapiens (Human), UniProt P28223). The series can be described thus: 5-HT2A Gq-mediated calcium flux functional assay. The class given is cell-based. Conditions: for 5-HT2A-Ca2+ FLUX Emax (% 5-HT): IA = Inactive, N=1-3.
The next series concerns the target 5-HT2B (Homo sapiens (Human), UniProt P41595). The series can be described thus: 5-HT2B Gq-mediated calcium flux functional assay. Format: cell-based. The settings on record: for 5-HT2B-Ca2+ FLUX Emax (% 5-HT): IA = Inactive, N=1-3. Background: Calcium assays in cells follow changes in intracellular calcium, usually with a dye or a luminescent sensor.
The next series addresses 5-HT2C (Homo sapiens (Human), UniProt P28335). The series can be described thus: 5-HT2C Gq-mediated calcium flux functional assay. The class given is cell-based. The settings on record: for 5-HT2C-Ca2+ FLUX Emax (% 5-HT): IA = Inactive, N=1-3.
Series [3] relates to C57BL/6J mice. The series can be described thus: Head-Twitch Response (HTR) in mice. Format: in vivo. The settings on record: for ED50: Mus musculus, ip, 0.5 h. As for the experimental part:
Male C57BL/6J mice (6-8 weeks old) were obtained from Jackson Laboratories (Bar Harbor, ME) and housed in a vivarium at the University of California San Diego, an AAALAC-approved animal facility that meets all federal and state requirements for care and treatment of laboratory animals. All animal experiments were carried out in accordance with NIH guidelines and were approved by the UCSD Institutional Animal Care and Use Committee. Mice were housed up to four per cage in a climate-controlled room on a reverse-light cycle (lights on at 1900 h, off at 0700 h). Animals were provided with ad libitum access to food and water, with the exception of during behavioral testing.
Testing was conducted between 1000 and 1800 h. Head movements were recorded using a head-mounted magnet and a magnetometer coil as described in Halberstadt et al. (Psychopharmacology, 2013, 227(4):727-739). For the head mounted magnet, mice were anesthetized, an incision was made in the scalp, and a neodymium magnet was attached to the dorsal surface of the cranium using dental cement. Following a 2-week recovery period, behavioral experiments were conducted in a well-lit room. At least 7 days occurred between sessions to avoid any carryover effects. Test substances (i.e., dimethyltryptamine (DMT), diethyltryptamine (DET), psilocybin, 6-fluoro-diethyltryptamine (6-F-DET), compounds 3-4, 6, 9, 12-13, 22, 33, 41, 69, 88, 166, and 178) were administered intraperitoneally (IP) at a volume of 5 mL/kg. Mice were treated with vehicle (saline) or 6 doses of the test compound and then placed in a glass cylinder surrounded by a magnetometer coil and tested for 30 min. Coil voltage was filtered (1 kHz lowpass), digitized (20 kHz sampling rate) and saved to disk using a Powerlab/8SP with LabChart v 7.3.2 (ADInstruments, Colorado Springs, CO).
The entire 30 min recordings were examined for head twitches. Established procedures based on artificial intelligence were used to identify head twitches in the recordings (Scientific Reports, 2020, 10(1):1-12). HTR counts were analyzed using one-way analyses of variance (ANOVA), followed by post hoc pairwise comparisons between individual groups and vehicle using Dunnett's multiple comparisons test. […] Median effective doses (ED50 values) and 95% confidence intervals (95% CI) were calculated using nonlinear regression (Prism 9.0.2, GraphPad Software, San Diego, CA) (Table 4 and FIGS. 1-3).

Series [4] can be described thus: In vivo intravenous pharmacokinetic study in rats. More on the design: species or system Sprague Dawley rats. The settings on record: rat, mean; for Vd: iv, 1 mg/kg. The procedure: For the in vivo stability study described herein, 1 mg/kg of drug was administered by intravenous injection (i.e., dose volume 2 mL/kg, vehicle 5% DMSO:95% hydroxypropyl-beta-cyclodextrin (20% w/v in water)) to three male Sprague Dawley rats (˜300 g at time of dosing). Blood samples (˜240 μL) were collected via venipuncture at various time points (5, 15, 30, 60 120 240, 480 and 1,440 min) into K2EDTA-coated tubes. The samples were spun at 10,000 rpm (9,600×G) for 2 minutes. 100 μL of the resulting plasma was then collected and stored at −80° C. until analyzed by HPLC as described above.
Compound 3 administered intravenously (1 mg/kg); Vehicle: 5% DMSO, 95% 2-hydroxypropyl-β-cyclodextrin (HPBCD) (20% w/v in water); Plasma concentrations were quantified at multiple time points by UHPLC-MS-MS; N=3.

[5] abbreviates: read-out: HTR ED50 μmol/kg (95% CI).
Where [6] appears, read: read-out: HTR ED50 mg/kg (95% CI).
[7] abbreviates: male, Sprague Dawley, plasma, intravenous 1 mg/kg, N=3.

SMILES strings stand for the structures. Read-outs that look alike come from different tables or passages of the source.

Chain of 5-HT2C (P28335 whole entry, looked up): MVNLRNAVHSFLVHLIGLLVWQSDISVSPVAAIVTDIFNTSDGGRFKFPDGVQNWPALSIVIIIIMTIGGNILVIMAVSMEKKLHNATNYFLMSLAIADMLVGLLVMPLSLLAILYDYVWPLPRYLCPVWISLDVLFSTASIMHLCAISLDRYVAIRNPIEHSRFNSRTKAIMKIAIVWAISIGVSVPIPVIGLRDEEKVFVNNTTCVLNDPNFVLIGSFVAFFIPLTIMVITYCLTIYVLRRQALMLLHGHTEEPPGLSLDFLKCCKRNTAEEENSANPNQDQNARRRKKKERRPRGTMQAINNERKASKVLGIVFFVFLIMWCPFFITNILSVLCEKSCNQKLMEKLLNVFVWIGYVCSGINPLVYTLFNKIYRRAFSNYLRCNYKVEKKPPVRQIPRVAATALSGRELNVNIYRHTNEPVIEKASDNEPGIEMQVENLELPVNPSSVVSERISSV
Chain of 5-HT2B (P41595 whole entry): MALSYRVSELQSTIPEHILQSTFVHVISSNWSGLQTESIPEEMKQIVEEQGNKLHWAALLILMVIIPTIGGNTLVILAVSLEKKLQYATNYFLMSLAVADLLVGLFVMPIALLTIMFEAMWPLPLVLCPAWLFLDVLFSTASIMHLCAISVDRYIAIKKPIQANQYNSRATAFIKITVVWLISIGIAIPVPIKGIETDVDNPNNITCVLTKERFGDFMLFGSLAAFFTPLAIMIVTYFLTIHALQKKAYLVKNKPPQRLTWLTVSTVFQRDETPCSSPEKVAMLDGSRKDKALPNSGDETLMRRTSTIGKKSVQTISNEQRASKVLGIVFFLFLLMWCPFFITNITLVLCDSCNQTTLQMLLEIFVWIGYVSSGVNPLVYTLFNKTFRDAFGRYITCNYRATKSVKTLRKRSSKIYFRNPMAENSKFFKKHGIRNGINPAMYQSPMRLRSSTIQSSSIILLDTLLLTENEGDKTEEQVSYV

For `CN(C)CCc1c[nH]c2cccc(OP(=O)(O)O)c12` [Psilocybin], in the series with C57BL/6J mice [1], the “HTR ED50 μmol/kg (95% CI)” value was 1.40 µmol/kg and the “HTR ED50 mg/kg (95% CI)” value is listed as 0.38 mg/kg.
In the case of `CCCN(CCc1c[nH]c2ccc(F)cc12)C(C)C` [Example 4, N-(2-(5-fluoro-1H-indol-3-yl)ethyl)-N-isopropylpropan-1-amine], in the series on human hepatocytes, the “metabolism by human hepatocytes” value was “rapidly metabolized”. In addition, in series [2], the half-life (usually the time needed for the level to fall by half in the phase considered) at 1 μM stood at 13 min and the hepatocyte CLint at 1 μM was determined as 109 µL/min/1e6 cells. The “5-HT2A pKi ± SEM” value on Serotonin 5-HT2A (human) was found to be 6.02 ± 0.07. On 5-HT1A, it took 331 nM to reach a half-maximal effect (EC50) and the “5-HT1A-cAMP Emax (% 5-HT)” value came out at 80.5 ± 2.5 % 5-HT. On 5-HT2A, the EC50 (usually the concentration needed to bring the measured effect to its halfway point) is 0.468 nM and the “5-HT2A-Ca2+ FLUX Emax (% 5-HT)” value is listed as 99.5 ± 1.1 % 5-HT. Besides, on 5-HT2B, the EC50 is 0.759 nM and the “5-HT2B-Ca2+ FLUX Emax (% 5-HT)” value is 105.60 ± 0.7 % 5-HT. Further, on 5-HT2C, the EC50 is 9.12 nM and the “5-HT2C-Ca2+ FLUX Emax (% 5-HT)” value came out at 74.6 ± 2.0 % 5-HT. For the same compound, the ED50 in the series on C57BL/6J mice [3] (setting [5]) is 2.18 µmol/kg. In addition, the ED50 with C57BL/6J mice [3] (setting [6]) turned out to be 0.65 mg/kg. Moreover, in the series on C57BL/6J mice [3] (compared to vehicle), the “HTR counts over baseline / induction of HTR” value is on record as “significant increase”.
Regarding `CCC(C)N(C)CCc1c[nH]c2ccc(F)cc12` (centres unmarked) [Example 3, N-(2-(5-fluoro-1H-indol-3-yl)ethyl)-N-methylbutan-2-amine], in the series with human hepatocytes, the “metabolism by human hepatocytes” value is on record as “rapidly metabolized”. Also, in series [2], the half-life at 1 μM was 11 min and the hepatocyte CLint at 1 μM was 132 µL/min/1e6 cells. The “5-HT2A pKi ± SEM” value at Serotonin 5-HT2A (human) turned out to be 6.23 ± 0.30. In addition, at 5-HT1A, the EC50 is 3890 nM and the “5-HT1A-cAMP Emax (% 5-HT)” value is listed as 83.3 ± 5.7 % 5-HT. Further, in [4] (setting [7]), the exposure (AUC) (in general, concentration integrated over time) stood at 594 ng·h/mL; the AUC(0-inf) (commonly the area under the concentration-time curve extrapolated to infinity) amounted to 597 ng·h/mL; the C0 amounted to 2490 ng/mL; the clearance (usually a measure of how efficiently the substance is removed, as volume per time) was found to be 29.5 mL/min/kg. Also, in series [4] (male, Sprague Dawley, plasma, intravenous 1 mg/kg, N=3, read-out: Half-Life (converted)), the half-life was 65.4 min. Moreover, the Vd in [4] (male, Sprague Dawley, plasma, N=3, read-out: Vss) was 0.999 L/kg. Further, in [4] (male, Sprague Dawley, plasma, N=3, read-out: Vz), the Vd stood at 3.04 L/kg. Moreover, in series [4] (intravenous 1 mg/kg, N=3), the “AUC % Extrapolation to C0” value is on record as 27.7%, the “AUC % Extrapolation to Inf” value is 0.570% and the “half-life” value was 65.4 min. For the same compound, at 5-HT2A, the EC50 was 3.72 nM and the “5-HT2A-Ca2+ FLUX Emax (% 5-HT)” value turned out to be 94.8 ± 0.8 % 5-HT. Further, at 5-HT2B, the EC50 is 9.12 nM and the “5-HT2B-Ca2+ FLUX Emax (% 5-HT)” value is 37.5 ± 1.5 % 5-HT. Further, on 5-HT2C, the EC50 is 49 nM and the “5-HT2C-Ca2+ FLUX Emax (% 5-HT)” value came to 56.0 ± 0.9 % 5-HT. For the same compound, in the series with C57BL/6J mice [3] (setting [5]), the ED50 turned out to be 6.28 µmol/kg. Besides, the ED50 with C57BL/6J mice [3] (setting [6]) amounted to 1.79 mg/kg.

Values taken from patent US20240286998A1, “F[…], ANALOGUES THEREOF, AND METHODS USING SAME” (Saint Joseph's University, priority 2021, published 2024).
